Measurements taken from PMC12722920, “Pharmacokinetics and pharmacodynamics of cannabigerol (CBG) in the C57BL/6Crl mouse” (Frontiers in Pharmacology, 2025).
Like-named read-outs stand apart in the source and are kept apart here.

Legend:
male Sprague Dawley rats = system: male Sprague Dawley rats; parameters: method as in Jenkins et al., 2023; settings: acute oral 100 mg/kg, 30 min post-administration; ref Jenkins et al., 2023; cited from earlier work
CD-1 mice = system: CD-1 mice; parameters: method as in Schwarz et al., 2024; settings: 100 mg/kg i.p., not at 10 or 320 mg/kg, ref Schwarz et al., 2024, cited from earlier work
male mice = system: male mice; parameters: method as in Zagzoog et al., 2020; settings: i.p., 15 min post-injection; ref Zagzoog et al., 2020; cited from earlier work
humans = system: humans; parameters: method as in Cuttler et al., 2024; settings: oral 20 mg CBG; ref Cuttler et al., 2024; cited from earlier work
[1] = parameters: method as in Deiana et al., 2012; settings: ref Deiana et al., 2012, cited from earlier work
[2] = Phase I pharmacokinetic profile: blood concentration vs time by HPLC-MS/MS after a single 10 mg/kg dose; assay type: in vivo, C57BL/6Crl mice; settings: for k (terminal phase rate constant): noncompartmental
Protocol: In phase I, male mice were randomly assigned to Groups A, B, C, or D. Interventions per group are specified in Figure 2. Each group was divided into 3 cohorts and randomly assigned to receive p.o., i.p., or i.v. administration. Oral (p.o.) administration cohorts received 10 mg/kg CBG in olive oil with 10% DMSO, and i.p. and i.v. cohorts received 10 mg/kg CBG with 10% DMSO and vehicle (1:1:18 ethanol: kolliphor: saline). PK profiles were developed for blood collection at 10 min, 30 min, 1 h, 3 h, 6 h, 12 h, 18 h, and 24 h. Blood collection was performed using a destructive sampling method, with each mouse providing blood at two time point collections. The initial blood draw aimed to obtain a 100 µL blood sample from the left leg lateral saphenous vein of the mouse, and the second blood draw from the same mouse involved the administration of isoflurane (3%–5%) followed by exsanguination via cardiac puncture. Group A was subjected to two time point blood draws, at 10 min and at 30 min. Groups B-D were first subjected to the cannabinoid-induced tetrad assay, then two time point blood draws. Due to time constraints, the open field test (OFT) was not performed in Phase I.
Blood collection from the saphenous leg vein was drawn into a RAM Scientific Safe-T-Fill™ Capillary blood collection system containing heparin and lithium (Waltham, Massachusetts, U.S). Blood collection from the cardiac puncture was drawn into a syringe and transferred to a 2 mL blood collection tube containing heparin and lithium. Samples were immediately placed on ice, transferred to LoBind® tubes as quickly as possible, and then stored at −80 °C. The blood concentrations of CBG were determined using High-Performance Liquid Chromatography-Tandem Mass Spectrometry (HPLC-MS/MS).
The PK parameters for CBG were determined by GraphPad Prism (v. 10.2.3). Linear regression analysis natural log of the concentration versus time curve was utilized to derive the terminal phase rate constant (k), from which the terminal phase half-life (t1/2) was calculated using the ratio (0.693/k). For both p.o. and i.p. administration, the Cmax was obtained directly from visual inspection of the blood concentration versus time profiles. For the purposes of this study, Tmax refers to the time at which Cmax was reported. The log-linear trapezoidal method was used to calculate the total area under the curve (AUC) of the average blood concentrations versus time profile with extrapolation to infinity, where the tail of the AUC (i.e., last concentration extrapolated to infinity) was calculated as the ratio Cp,last/k. Bioavailability was estimated by dividing the mean total AUC∞ for each route of administration by the total AUC observed for each compound following i.v. administration (where F = 100%, by definition). Systemic clearance (ClS) was calculated as the ratio Dose i.v. /AUC ∞ . The apparent volume of distribution (Vd) was calculated as Dose i.v. /(k × AUC ∞ ).
HPLC-MS/MS was used to quantify CBG in the blood using a 1,260 Agilent (Agilent Technologies Canada, Mississauga, ON) High Performance Liquid Chromatography (HPLC) system connected to an AB Sciex 4,000 Hybrid Triple Quadruple Linear Ion Trap Mass Spectrometer (QTRAP) equipped with a Turboionspray™ interface (AB Sciex, Concord, ON). The analytical method was developed and validated for mouse blood. An Infinity lab Phenyl Hexyl column (4.6 × 12.5 mm, 5 μm) and guard column (4.6 × 12.5 mm, 5 μm) were used to separate compounds, and the temperature was set to 50 °C.

[3] = Phase II blood concentration 10 min after i.v. administration (HPLC-MS/MS)
[4] = 10 mg/kg i.v., male mice, blood
[5] = C57BL/6Crl, mouse, whole blood, ip, 10 mg/kg i.p., male mice, blood
[6] = C57BL/6Crl, mouse, whole blood, iv, 10 mg/kg i.v., male mice, blood
[7] = C57BL/6Crl, mouse, whole blood, po, 10 mg/kg p.o., male mice, blood

Q: With `CCCCCc1cc(O)c(C/C=C(\C)CCC=C(C)C)c(O)c1` [CBG, cannabigerol] as the molecule, how does the anxiolytic effects (male Sprague Dawley rats) read?
A: did not produce anxiolytic effects

Q: What about the anti-nociception (CD-1 mice; 20 min post-injection) of the same molecule?
A: anti-nociception

Q: What about the hypothermia (CD-1 mice; 30 min post-injection) of the same molecule?
A: resulted in hypothermia

Q: What about the anti-nociceptive effect (male mice) of the same molecule?
A: evoked an anti-nociceptive effect

Q: And the “reduction in anxiety levels from baseline” value (humans)?
A: 26.5%

Q: And the “time to peak plasma concentration (Tmax)” value ([1]; i.p.)?
A: 2 h

Q: And the “time to peak plasma concentration (Tmax)” value ([1]; p.o.)?
A: 0.5 h

Q: What about the “p.o. Cmax as percent of i.p. Cmax” value ([2]; 10 mg/kg CBG, male mice) of the same molecule?
A: 2%

Q: And the “k (terminal phase rate constant)” value ([2]; 10 mg/kg i.p., male mice, blood)?
A: 0.069 h⁻¹

Q: And the α [2, 4]?
A: 1.016 h⁻¹

Q: What about the “k (terminal phase rate constant)” value [2, 4] of the same molecule?
A: 0.0698 h⁻¹

Q: And the AUC(0-inf) [2, 5]?
A: 1170 ng·h/mL

Q: And the Cmax [2, 5]?
A: 516 ng/mL

Q: And the Tmax [2, 5]?
A: 0.5 h

Q: And the half-life [2, 5]?
A: 10 h

Q: And the AUC(0-inf) [2, 6]?
A: 2800 ng·h/mL

Q: And the half-life [2, 6]?
A: 9.9 h

Q: And the clearance ([2]; C57BL/6Crl, mouse, whole blood, iv, 10 mg/kg i.v., male mice, read-out: ClS (systemic clearance))?
A: 59.4 mL/min/kg

Q: And the Vd ([2]; C57BL/6Crl, mouse, whole blood, iv, 10 mg/kg i.v., male mice, read-out: Vd (apparent volume of distribution))?
A: 51.1 L/kg

Q: What about the Cmax [2, 7] of the same molecule?
A: 10.5 ng/mL

Q: And the Tmax [2, 7]?
A: 3 h

Q: And the concentration at 10 min ([2]; male, C57BL/6Crl, mouse, whole blood, iv, 10 mg/kg, i.v., males, read-out: C at 10 min (blood concentration 10 min post-administration))?
A: 2840 ng/mL

Q: And the “mean blood concentration of CBG relative to THC” value ([3]; 10 mg/kg i.v., higher than THC)?
A: approximately 5 times

Q: And the concentration at 10 min ([3]; both, C57BL/6Crl, mouse, whole blood, intravenous, 10 mg/kg)?
A: 2700 ng/mL
